Converted amounts (≈) assume the structure as drawn.
Experiment: Equilibrium solubility of topiramate in de-ionized water and in aqueous surfactant solutions
Type: physicochemical
Method: The resulting solution saturated with the pharmaceutical agent is then filtered, typically under pressure through a 0.8-micron Millipore filter, and the concentration of the pharmaceutical agent in the solution is measured by any appropriate analytical method including gravimetric, ultraviolet spectrophometry, chromatography, and the like. The solubility of the pharmaceutical agent is measured at equilibrium.
A drug composition of the present invention was prepared as follows. Aqueous solutions of five surfactants were prepared. The selected surfactants were four grades of ethylene oxide/propylene oxide/ethylene oxide (LUTROL grades F127, F87, F 108, and F68) and PEG-40 stearate (MYRJ 52). Solutions were made at concentrations of 1, 5, and 15 weight percent. The aqueous surfactant blends solutions were chilled as necessary to promote complete dissolution of the surfactant prior to drug solubility studies.
The aqueous surfactant solutions were equilibrated to constant temperature in a 37° C. water bath. Then, neat topiramate drug was added slowly with stirring in about 10 mg increments to the surfactant solutions until no more drug dissolved. […] The resulting saturated solutions of drug were filtered through 0.8 micron filters and analyzed for drug concentration by refractive index chromatography. […]

For `CC1(C)O[C@@H]2[C@@H](CO[C@@]3(COS(N)(=O)=O)OC(C)(C)O[C@@H]23)O1` [topiramate], the solubility (37 °C, thermodynamic from solid, de-ionized water, no temperature printed at the place, read-out: Solubility of neat topiramate in de-ionized water) was ~12 mg/mL (≈ 35.4 mM) and the “Topiramate solubility in water in the presence of surfactant, compared to control without surfactant” value (LUTROL F127, F87, F108, F68 and MYRJ 52 solutions at 1, 5 and 15 weight percent, 37° C.) was “increased by each surfactant”.
